Data on 3 compounds can be found in US8168679B2, “Salts of Tramadol and Naproxen and their crystal forms in the treatment of pain” (Laboratorios del Dr. Esteve, S.A., priority 2007, dated 2012).

Data set [1] can be described thus: Determination of the hygroscopicity of the crystalline salts (weight variation and Karl Fischer in humidity chamber). The data set is classed as physicochemical. Conditions: for KF (t = 0): Karl Fischer value at the beginning of the study; for KF (t = 6 days): Karl Fischer value at the end of the study, 6 days in humidity chamber; for hygroscopicity according to the scale: class by % incorporation of water; for Δ % weigth 24 h / Δ % weigth 48 h / Δ % weigth 6 days: humidity chamber, 64% relative humidity, 25±2° C. An excerpt:
The objective was to measure the hygroscopicity of the salts of the present invention, and comparing it with the one of the known salt of each counter part of the salts. The increasing of the weight will be measured in order to evaluate the incorporation of water in the samples, together with the Karl Fischer factor.
According to “Technical guide for the elaboration of monographs” special issue PharmaEuropa, 3rd ed., December 1999, the hygroscopicity is defined based on the augmentation of weight after 24 hours of exposition to 80% of relative humidity at 25° C. The scale is the following:
Methods: • Preparation of the Humidity chamber: A supersaturated solution of sodium nitrite (45 g/50 ml) is prepared and introduced in a humidification chamber (samplaterecord). The chamber is maintained at a temperature of 25±2° C. during 24 hours before use, and humidity is controlled each day. […] 102.2 mg of sodium naproxen. • The samples are introduced in the conditioned humidity chamber, and the weight is controlled after 24 hours, 48 hours, and 6 days, till an equilibrium is reached (2 successive control with a variation of weight less than 0.2 mg). • The Karl Fischer is also determined (using a Methrom 756 KF) at the beginning and at the end of the study.
The variation of the weight is controlled and the following percentage is calculated: Δ% weigth=(Pn−P1)/P1×100 wherein: P1 is the initial weight, Pn is the weight measured for the sample.

Data set [2] deals with TNBS-induced colonic hypersensitivity. Nature of the data set: TNBS-induced colonic hypersensitivity (visceral pain model, colonic distension). Format: in vivo, Male Sprague-Dawley rats. As to conditions: rats, day 7 after TNBS, 5 mg/kg orally, FIG. 12.
Procedure: The effect of the salts of the present invention on pain is measured in a model of visceral pain well known in the art: the TNBS-induced colonic hypersensitivity. In this model, the injection of trinitrobenzene sulfonic acid (TNBS) into the proximal colon provoke chronic colonic hypersensitivity, measured in conscious rats by a decreased pain threshold in response to colonic distension.
The animals are Male Sprague-Dawley rats (360-400 g, France). They were housed in a temperature (19.5° C. 24.5° C.) and relative humidity (45%-65%) controlled room with a 12 h—light/dark cycle, with ad libitum access to standard pelleted laboratory chow and water throughout the study.
Fasted (24 hours) animals were undergoing surgery for administration of TNBS (50 mg/kg) into the proximal part of the colon. […]
Day 7 after TNBS injection: Compounds were administered and the colonic hypersensitivity due to TNBS-induced colonic inflammation was measured before the treatment, and at t=20, 45, 90 and 120 min after treatment. […]
The 95% confidence intervals of each of the arithmetic means were also calculated.
Statistical significance between the treated groups and the vehicle-treated group was determined by a two-way repeated measures ANOVA followed, when F-value is significant, by an appropriate post-hoc comparison (Bonferroni's test) using SigmaStat software.

Counter-ions that a name gives are not always drawn.

For `COc1ccc2cc([C@H](C)C(=O)[O-])ccc2c1.[Na+]` [sodium naproxen], in data set [1], the “KF (t = 0)” value came out at 1.04, the “KF (t = 6 days)” value is listed as 12.65, the “hygroscopicity according to the scale” value is recorded as “hygroscopic” and the “Δ % weigth 24 h” value is 14.39%. Moreover, in data set [1], the “Δ % weigth 48 h” value was determined as 14.39% and the “Δ % weigth 6 days” value stood at 14.3%.
Regarding `COc1cccc(C2(O)CCCCC2CN(C)C)c1` (centres unmarked) [tramadol hydrochloride], in data set [1], the “KF (t = 0)” value was 0.45, the “KF (t = 6 days)” value was 0.23, the “hygroscopicity according to the scale” value is “slightly hygroscopic” and the “Δ % weigth 24 h” value is on record as 0.19%. Also, in data set [1], the “Δ % weigth 48 h” value is 0.26% and the “Δ % weigth 6 days” value amounted to 0.18%.
In the case of “(R,R)-Tramadol-(S)-Naproxene Salt [Example 2]”, the “colonic threshold (pain threshold to colonic distension)” value in data set [2] (20-120 min after treatment) is “nearly recovering the same level of colonic threshold than the naive animal”. In addition, the “anti-hypersensitive effect compared with the corresponding combination (Combo-02)” value in data set [2] is “superior effect”.
